Structures can show the parent of a compound that is named as a salt.

By inhibition is commonly meant the change of the read-out against control, counted positive when it falls. A word on the melting point: it is the temperature, or range, at which the solid turns liquid.

Data set [1] deals with calcium channel (blood vessel, thoracic aorta) (Rattus norvegicus, UniProt P22002). The experiment in a line: In vitro calcium channel antagonistic effect (blood vessel): inhibition of high potassium contraction of helical thoracic aorta samples. The following applies: high potassium (45.0 mM KCl) contraction, 10^−7 M test compound, 30 minute pretreatment, read-out: Inhibition rate (%) (conc: 10^−7 M). As for the experimental part: In vitro calcium channel antagonistic effect (blood vessel)
(§1) The thoracic aorta was extracted from each of male Crj:CD rats (8 to 12 weeks old) to prepare helical samples. The blood vessel samples were suspended in 37° C. Tyrode's solution through which a gaseous mixture (95% of oxygen and 5% of carbon dioxide) was passed. For examining the change in tensile strength of the blood vessel, the isometry thereof was recorded on a pen-writing recorder through a transducer. The high potassium contraction was caused by exchanging the nutrient solution from Tyrode's solution to potassium-Tyrode's solution (94.6 mM of NaCl, 45.0 mM of KCl, 1.8 mM of CaCl2, 1.04 mM of MgCl2, 0.4 mM of NaH2PO4, 11.9 mM of NaHCO3 and 5.55 mM of glucose). The high potassium contraction-inhibiting effect of a test compound was evaluated by 30 minute pretreatment. Compound A described in European Patent No. 0404359A1 and compound B described in International Patent No. 9733885A1 were used as comparative substances. The calcium channel antagonistic activity was shown as the rate (%) of inhibition of control of high-calcium contraction with 10^−7 M test compound.

The target in a further data set is calcium channel (ileum) (Rattus norvegicus, UniProt P22002). As to the kind of experiment: In vitro calcium channel antagonistic effect (ileum): inhibition of high potassium contraction of ileum samples. The following applies: high potassium (45.0 mM KCl) contraction, 10^−7 M test compound, 30 minute pretreatment, read-out: Inhibition rate (%) (conc.: 10^−7M). As for the experimental part: In vitro calcium channel antagonistic effect (ileum)
as §1, with “ileum of” for “thoracic aorta was extracted from”, “was extracted at a part 3 cm apart from the ileocecal region.” for “to prepare helical samples.”, “ileum sample was” for “blood vessel samples were”, “ileum,” for “blood vessel,”, “isotonicity” for “isometry”

calcium channel (ileum), sequence (P22002 whole entry): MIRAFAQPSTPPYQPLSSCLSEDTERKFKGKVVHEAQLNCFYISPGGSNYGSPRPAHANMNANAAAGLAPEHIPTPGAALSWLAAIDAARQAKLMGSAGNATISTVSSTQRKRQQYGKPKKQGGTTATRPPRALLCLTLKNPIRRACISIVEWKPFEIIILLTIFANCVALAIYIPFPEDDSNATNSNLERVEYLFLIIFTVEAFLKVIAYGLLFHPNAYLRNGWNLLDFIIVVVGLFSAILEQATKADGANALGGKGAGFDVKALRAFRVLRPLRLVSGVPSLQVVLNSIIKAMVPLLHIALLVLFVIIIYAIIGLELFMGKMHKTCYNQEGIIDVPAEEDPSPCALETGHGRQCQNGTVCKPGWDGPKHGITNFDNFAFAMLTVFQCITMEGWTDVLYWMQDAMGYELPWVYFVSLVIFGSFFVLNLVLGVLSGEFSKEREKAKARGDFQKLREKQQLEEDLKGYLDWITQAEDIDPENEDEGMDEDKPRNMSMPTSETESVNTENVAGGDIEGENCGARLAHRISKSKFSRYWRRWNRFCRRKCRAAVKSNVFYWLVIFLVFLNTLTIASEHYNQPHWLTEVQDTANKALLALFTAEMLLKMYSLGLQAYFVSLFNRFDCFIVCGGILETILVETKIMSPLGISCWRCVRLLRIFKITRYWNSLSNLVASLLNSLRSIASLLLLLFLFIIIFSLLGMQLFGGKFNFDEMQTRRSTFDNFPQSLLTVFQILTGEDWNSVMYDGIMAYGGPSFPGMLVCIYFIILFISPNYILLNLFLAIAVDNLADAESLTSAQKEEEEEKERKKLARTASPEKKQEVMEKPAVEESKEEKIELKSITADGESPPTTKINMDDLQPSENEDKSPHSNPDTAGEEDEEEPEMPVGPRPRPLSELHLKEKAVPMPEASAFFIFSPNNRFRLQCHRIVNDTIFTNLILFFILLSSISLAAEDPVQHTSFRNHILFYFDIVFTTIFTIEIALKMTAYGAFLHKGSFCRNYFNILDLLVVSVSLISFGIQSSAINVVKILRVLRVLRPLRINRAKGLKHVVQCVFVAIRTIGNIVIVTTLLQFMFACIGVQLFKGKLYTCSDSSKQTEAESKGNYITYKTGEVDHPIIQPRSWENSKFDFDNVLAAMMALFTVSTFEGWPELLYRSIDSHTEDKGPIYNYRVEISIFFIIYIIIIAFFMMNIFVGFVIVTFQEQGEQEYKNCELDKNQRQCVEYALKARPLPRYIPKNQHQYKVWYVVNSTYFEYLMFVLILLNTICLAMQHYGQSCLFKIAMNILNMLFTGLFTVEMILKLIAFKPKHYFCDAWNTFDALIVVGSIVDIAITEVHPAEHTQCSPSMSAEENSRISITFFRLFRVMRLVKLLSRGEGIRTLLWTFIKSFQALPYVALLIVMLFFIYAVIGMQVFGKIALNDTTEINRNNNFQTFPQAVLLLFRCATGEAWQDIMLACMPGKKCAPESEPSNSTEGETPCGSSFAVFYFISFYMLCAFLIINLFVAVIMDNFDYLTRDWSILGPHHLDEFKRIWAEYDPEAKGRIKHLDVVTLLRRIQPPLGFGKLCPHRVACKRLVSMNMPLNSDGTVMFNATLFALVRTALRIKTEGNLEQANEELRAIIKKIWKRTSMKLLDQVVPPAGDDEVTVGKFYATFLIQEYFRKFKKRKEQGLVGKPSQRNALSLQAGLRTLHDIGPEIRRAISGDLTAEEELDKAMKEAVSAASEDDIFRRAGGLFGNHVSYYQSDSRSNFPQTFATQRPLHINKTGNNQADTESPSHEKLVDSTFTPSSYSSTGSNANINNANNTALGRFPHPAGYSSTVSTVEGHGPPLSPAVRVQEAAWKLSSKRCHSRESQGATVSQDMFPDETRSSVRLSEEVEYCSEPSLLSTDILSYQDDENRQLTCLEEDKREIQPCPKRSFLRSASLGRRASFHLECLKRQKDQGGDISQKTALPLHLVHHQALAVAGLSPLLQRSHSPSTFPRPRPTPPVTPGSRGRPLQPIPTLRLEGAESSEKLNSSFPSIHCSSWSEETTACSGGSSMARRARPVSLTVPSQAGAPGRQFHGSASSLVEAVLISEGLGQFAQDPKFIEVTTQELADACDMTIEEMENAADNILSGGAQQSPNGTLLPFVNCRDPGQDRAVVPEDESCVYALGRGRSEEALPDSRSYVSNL
calcium channel (blood vessel, thoracic aorta), sequence (P22002 whole entry): as above

`COc1ccc(CCN2CCCC2CN2c3ccccc3CSc3ccccc32)cc1` (centres unmarked) [Compound A, reference compound]: the figures for the inhibition at 0.1 µM (in data set [1]; on calcium channel (ileum)) were 9% and 48%, respectively.
Taken in the same sequence, the figures for `COc1ccc(CCN2CCC[C@@H]2CN2c3ccccc3COc3ccccc32)cc1` [Compound B, reference compound] were 17% and 67%.
As to `COc1ccc(CCN2CCCC[C@@H]2CN2c3ccccc3COc3ccccc32)cc1.Cl` [Example 1, (R)-5,11-Dihydro-5-[1-(4-methoxyphenethyl)piperidine-2-ylmethyl]dibenzo[b,e][1,4]oxazepine Hydrochloride], the melting point was 199 to 201 °C. In addition, in data set [1], the inhibition at 0.1 µM amounted to 38%. The inhibition at 0.1 µM at calcium channel (ileum) amounted to 90%.
`COc1cccc(CCN2CCCC[C@@H]2CN2c3ccccc3COc3ccccc32)c1` [Example 3, (R)-5,11-Dihydro-5-[1-(3-methoxyphenethyl)piperidine-2-ylmethyl] dibenzo[b,e][1,4]oxazepine Hydrochloride]: the values for the inhibition at 0.1 µM (in data set [1]; at calcium channel (ileum)) were 33% and 61%, respectively.
The like results for `COc1ccc(CCCN2CCCC[C@@H]2CN2c3ccccc3COc3ccccc32)cc1` [Example 4, (R)-5,11-Dihydro-5-[1-[3-(4-methoxyphenyl)propyl]piperidine-2-ylmethyl]dibenzo[b,e][1,4]oxazepine Hydrochloride] were, in that order, 32% and 64%.
Taken in the same sequence, the figures for `c1ccc2c(c1)COc1ccccc1N2C[C@H]1CCCCN1CCc1ccc2c(c1)OCO2` [Example 5, (R)-5,11-Dihydro-5-[1-(3,4-methylenedioxyphenethyl)piperidine-2-yl-methyl] dibenzo[b,e][1,4]oxazepine Hydrochloride] were 27% and 66%.
The like results for `Clc1ccc(CCN2CCCC[C@@H]2CN2c3ccccc3COc3ccccc32)cc1` [Example 6, (R)-5-[1-(4-chlorophenethyl)piperidine-2-ylmethyl]-5,11-dihydrodibenzo [b,e][1,4]oxazepine Hydrochloride] were, in that order, 25% and 75%.
As to `CN(C)c1ccc(CCN2CCCC[C@@H]2CN2c3ccccc3COc3ccccc32)cc1` [Example 7, (R)-5,11-Dihydro-5-[1-(4-dimethylaminophenethyl)piperidine-2-ylmethyl]dibenzo[b,e][1,4]oxazepine Dihydrochloride], the inhibition at 0.1 µM turned out to be 23% in data set [1] and 78% on calcium channel (ileum).
In turn, `COc1ccc(CCN2CC[C@@H](N3c4ccccc4COc4ccccc43)C2)cc1.Cl` [Example 8, (R)-5,11-Dihydro-5-[1-(4-methoxyphenethyl)pyrrolidine-3-yl] dibenzo[b,e][1,4]oxazepine Hydrochloride] yielded a melting point of 224 to 226 °C. For the same compound, in data set [1], the inhibition at 0.1 µM came to 52%. Also, the inhibition at 0.1 µM at calcium channel (ileum) stood at 100%.
The like results for `CN(C)c1ccc(CCN2CC[C@@H](N3c4ccccc4COc4ccccc43)C2)cc1.Cl` [Example 10, (R)-5,11-Dihydro-5-[1-(4-dimethylaminophenethyl)pyrrolidine-3-yl]dibenzo[b,e][1,4]oxazepine Hydrochloride] were, in that order, 219 to 220 °C, 59% and 116%.
As to `COc1ccc(CCCN2CC[C@@H](N3c4ccccc4COc4ccccc43)C2)cc1` [Example 11, (R)-5,11-Dihydro-5-[1-[3-(4-methoxyphenyl)propyl]pyrrolidine-3-yl]dibenzo[b,e][1,4]oxazepine Hydrochloride], the inhibition at 0.1 µM in data set [1] was found to be 61%; at calcium channel (ileum), 83%.
Turning to `c1ccc2c(c1)COc1ccccc1N2[C@@H]1CCN(CCc2ccc3c(c2)OCO3)C1` [Example 12, (R)-5,11-Dihydro-5-[1-(3,4-methylenedioxyphenethyl)pyrrolidine-3-yl]dibenzo[b,e][1,4]oxazepine Hydrochloride], the inhibition at 0.1 µM was 51% in data set [1] and 77% at calcium channel (ileum).
Consider `Clc1ccc(CCN2CC[C@@H](N3c4ccccc4COc4ccccc43)C2)cc1` [Example 13, (R)-5-[1-(4-chlorophenethyl)pyrrolidine-3-yl]-5,11-dihydrodibenzo[b,e][1,4] oxazepine Hydrochloride], for which the inhibition at 0.1 µM in data set [1] is 38%; on calcium channel (ileum), 76%.
`COc1ccc(CCN(C)CCN2c3ccccc3COc3ccccc32)cc1.Cl` [Example 14, 5,11-Dihydro-5-[2-[N-(4-methoxyphenethyl)-N-methylamino]ethyl]dibenzo[b,e][1,4]oxazepine Hydrochloride] returned a melting point of 139 to 140 °C. Besides, the inhibition at 0.1 µM in data set [1] was 43%. The inhibition at 0.1 µM at calcium channel (ileum) worked out at 105%.
Take `COc1cccc(CCN(C)CCN2c3ccccc3COc3ccccc32)c1` [Example 15, 5,11-Dihydro-5-[2-[N-(3-methoxyphenethyl)-N-methylamino]ethyl]dibenzo[b,e][1,4]oxazepine Hydrochloride]: the inhibition at 0.1 µM amounted to 29% in data set [1] and 82% at calcium channel (ileum).
The like results for `COc1ccc(CCCN(C)CCN2c3ccccc3COc3ccccc32)cc1` [Example 16, 5,11-Dihydro-5-[2-[N -[3-(4-methoxyphenyl)propyl]-N-methylamino]ethyl]dibenzo[b,e][1,4]oxazepine Hydrochloride] were, in that order, 28% and 82%.
The like results for `CN(CCc1ccc2c(c1)OCO2)CCN1c2ccccc2COc2ccccc21` [Example 17, 5,11-Dihydro-5-[2-[N-methyl-N-(3,4-methylenedioxyphenethyl)amino]ethyl]dibenzo[b,e][1,4]oxazepine Hydrochloride] were, in that order, 30% and 78%.
For `CN(CCc1ccc(Cl)cc1)CCN1c2ccccc2COc2ccccc21` [Example 18, 5-[2-[N-(4-chlorophenethyl)-N-methylamino]ethyl]-5,11-dihydrodibenzo [b,e][1,4]oxazepine Hydrochloride], the inhibition at 0.1 µM was 34% in data set [1] and 70% on calcium channel (ileum).
Consider `CN(CCc1ccc(N(C)C)cc1)CCN1c2ccccc2COc2ccccc21` [Example 19, 5,11-Dihydro-5-[2-[N-(4-dimethylaminophenethyl)-N-methylamino]ethyl]dibenzo[b,e][1,4]oxazepine Dihydrochloride], for which the inhibition at 0.1 µM in data set [1] was 39%; on calcium channel (ileum), 76%.
The like results for `CN(CCc1cccc(N(C)C)c1)CCN1c2ccccc2COc2ccccc21` [Example 20, 5,11-Dihydro-5-[2-[N-(3-dimethylaminophenethyl)-N-methylamino]ethyl]dibenzo[b,e][1,4]oxazepine Dihydrochloride] were, in that order, 28% and 50%.
